Laboratory results: ChEMBL document CHEMBL1158870, “Antitumor agents. 180. Chemical Studies and cytotoxic evaluation of cumingianosides and cumindysoside A, antileukemic triterpene glucosides with a 14,18-cycloapotirucallane skeleton” (1997)

Columns and labels:
SK-OV-3 = assay: Cytotoxicity against human SKOV3 cells by SRB assay; format: functional
COLO 205 = assay: Cytotoxicity against human COLO205 cells by SRB assay; format: functional
HCT-15 = assay: Cytotoxicity against human HCT15 cells by SRB assay; format: functional
EKVX = assay: Cytotoxicity against human EKVX cells by SRB assay; format: functional
MDA-MB-231 = assay: Cytotoxicity against human MDA-MB-231 cells by SRB assay; format: functional
SNB-75 = assay: Cytotoxicity against human SNB75 cells by SRB assay; format: functional
NCI-H322M = assay: Cytotoxicity against human NCI-H322M cells by SRB assay; format: functional
SF-295 = assay: Cytotoxicity against human SF295 cells by SRB assay; format: functional
SN12C = assay: Cytotoxicity against human SN12C cells by SRB assay; format: functional
[1] = Cytotoxicity against human breast cancer cells by SRB assay; format: functional; conditions: Cancer cell lines
CAKI-1 = assay: Cytotoxicity against human Caki1 cells by SRB assay; format: functional
HCT-116 = assay: Cytotoxicity against human HCT116 cells by SRB assay; format: functional
IGROV-1 = assay: Cytotoxicity against human IGROV1 cells by SRB assay; format: functional
[2] = Cytotoxicity against human prostate cancer cells by SRB assay; format: functional; conditions: Cancer cell lines
SR = assay: Cytotoxicity against human SR cells by SRB assay; format: functional
ACHN = assay: Cytotoxicity against human ACHN cells by SRB assay; format: functional
UACC-62 = assay: Cytotoxicity against human UACC62 cells by SRB assay; format: functional
Leukemia cell = assay: Cytotoxicity against human Leukemia cells by SRB assay; format: functional
[3] = Cytotoxicity against human MCF7/ADR cells by SRB assay; format: functional; conditions: NCI/ADR-RES
OVCAR-4 = assay: Cytotoxicity against human OVCAR4 cells by SRB assay; format: functional
[4] = Cytotoxicity against human HL60(TB) cells by SRB assay; format: functional, HL-60(TB); conditions: HL-60
A498 = assay: Cytotoxicity against human A498 cells by SRB assay; format: functional
[5] = Cytotoxicity against human renal cancer cells by SRB assay; format: functional; conditions: Cancer cell lines
OVCAR-5 = assay: Cytotoxicity against human OVCAR5 cells by SRB assay; format: functional
MDA-N = assay: Cytotoxicity against human MDA-N cells by SRB assay; format: functional
NCI-H460 = assay: Cytotoxicity against human NCI-H460 cells by SRB assay; format: functional
[6] = Cytotoxicity against human Colon cancer cells by SRB assay; format: functional; conditions: Cancer cell lines
LOX IMVI = assay: Cytotoxicity against human LOXIMVI cells by SRB assay; format: functional
RPMI-8226 = assay: Cytotoxicity against human RPMI8226 cells by SRB assay; format: functional
A549 = assay: Cytotoxicity against human A549 cells by SRB assay; format: functional
[7] = Cytotoxicity against human ovarian cancer cells by SRB assay; format: functional; conditions: Cancer cell lines
SK-MEL-2 = assay: Cytotoxicity against human SK-MEL-2 cells by SRB assay; format: functional
K562 = assay: Cytotoxicity against human K562 cells by SRB assay; format: functional
RXF 393 = assay: Cytotoxicity against human RXF393 cells by SRB assay; format: functional
UO-31 = assay: Cytotoxicity against human UO31 cells by SRB assay; format: functional
M14 = assay: Cytotoxicity against human M14 cells by SRB assay; format: functional
OVCAR-8 = assay: Cytotoxicity against human OVCAR8 cells by SRB assay; format: functional
SW-620 = assay: Cytotoxicity against human SW620 cells by SRB assay; format: functional
CCRF-CEM = assay: Cytotoxicity against human CCRF-CEM cells by SRB assay; format: functional
SK-MEL-5 = assay: Cytotoxicity against human SK-MEL-5 cells by SRB assay; format: functional
Malme-3M = assay: Cytotoxicity against human MALME-3M cells by SRB assay; format: functional
SF-268 = assay: Cytotoxicity against human SF268 cells by SRB assay; format: functional
HT-29 = assay: Cytotoxicity against human HT29 cells by SRB assay; format: functional
NCI-H23 = assay: Cytotoxicity against human NCI-H23 cells by SRB assay; format: functional
T47D = assay: Cytotoxicity against human T47D cells by SRB assay; format: functional
SK-MEL-28 = assay: Cytotoxicity against human SK-MEL-28 cells by SRB assay; format: functional
NCI-H226 = assay: Cytotoxicity against human NCI-H226 cells by SRB assay; format: functional
UACC-257 = assay: Cytotoxicity against human UACC257 cells by SRB assay; format: functional
MDA-MB-435 = assay: Cytotoxicity against human MDA-MB-435 cells by SRB assay; format: functional
[8] = Cytotoxicity against human Hs 578T cells by SRB assay; format: functional
OVCAR-3 = assay: Cytotoxicity against human OVCAR-3 cells by SRB assay; format: functional
NSCLC = assay: Cytotoxicity against human NSCLC cells by SRB assay; format: functional
HOP-62 = assay: Cytotoxicity against human HOP62 cells by SRB assay; format: functional
NCI-H522 = assay: Cytotoxicity against human NCI-H522 cells by SRB assay; format: functional
KM12 = assay: Cytotoxicity against human KM12 cells by SRB assay; format: functional
BT-549 = assay: Cytotoxicity against human BT549 cells by SRB assay; format: functional
MOLT-4 = assay: Cytotoxicity against human MOLT4 cells by SRB assay; format: functional
MCF7 = assay: Cytotoxicity against human MCF7 cells by SRB assay; format: functional
DU-145 = assay: Cytotoxicity against human DU145 cells by SRB assay; format: functional
HCC 2998 = assay: Cytotoxicity against human HCC2998 cells by SRB assay; format: functional
U-251 = assay: Cytotoxicity against human U251 cells by SRB assay; format: functional
HOP-92 = assay: Cytotoxicity against human HOP92 cells by SRB assay; format: functional
[9] = Cytotoxicity against human CNS cancer cells by SRB assay; format: functional; conditions: Cancer cell lines
[10] = Cytotoxicity against human melanoma cells by SRB assay; format: functional; conditions: Melanoma cell
PC-3 = assay: Cytotoxicity against human PC3 cells by SRB assay; format: functional
SNB-19 = assay: Cytotoxicity against human SNB19 cells by SRB assay; format: functional
[11] = Cytotoxicity against human 786-O cells by SRB assay; format: functional; conditions: 786-0

For `C=C1[C@@H](O)C[C@@]23CC[C@@H]4[C@@]5(C)CC[C@@H](OC(C)=O)C(C)(C)[C@@H]5C[C@@H](O[C@@H]5O[C@H](COC(C)=O)[C@@H](O)[C@H](O)[C@H]5O)[C@@]4(C)C2=CC[C@H]3[C@H]1C`, the GI50 (SK-OV-3) was 11.7 µM, the GI50 (COLO 205) was 1.78 µM and the TGI (COLO 205) was 3.3 µM. It also gave a GI50 (HCT-15) of 11.5 µM, a TGI (HCT-15) of 27.5 µM and a GI50 (EKVX) of 10 µM. The GI50 (MDA-MB-231) was 7.76 µM, the GI50 (SNB-75) was 2.19 µM and the GI50 (NCI-H322M) was 12.9 µM. For the same molecule, the GI50 (SF-295) was 4.17 µM, the GI50 (SN12C) was 6.03 µM and the TGI [1] was 21.5 µM. For the same molecule, the GI50 (CAKI-1) was 13.2 µM, the GI50 (HCT-116) was 3.47 µM and the TGI (HCT-116) was 9.8 µM. It also gave a GI50 (IGROV-1) of 4.79 µM, a TGI [2] of 18.3 µM and a GI50 (SR) of 2.34 µM. It also gave a GI50 (ACHN) of 7.08 µM, a GI50 (UACC-62) of 7.08 µM and a TGI (Leukemia cell) of 8.7 µM. The GI50 [3] was 17.8 µM, the GI50 (OVCAR-4) was 3.98 µM and the GI50 [4] was 2.75 µM. It also gave a GI50 (A498) of 14.8 µM, a TGI [5] of 22.1 µM and a GI50 (OVCAR-5) of 2.09 µM. For the same molecule, the GI50 (MDA-N) was 5.13 µM, the GI50 (NCI-H460) was 4.27 µM and the TGI [6] was 11.3 µM. For the same molecule, the GI50 (LOX IMVI) was 3.98 µM, the GI50 (RPMI-8226) was 2.95 µM and the GI50 (A549) was 4.79 µM. The TGI [7] was 17.6 µM, the GI50 (SK-MEL-2) was 2.09 µM and the GI50 (K562) was 3.09 µM. For the same molecule, the GI50 (RXF 393) was 3.98 µM, the GI50 (UO-31) was 13.8 µM and the GI50 (M14) was 3.55 µM. It also gave a GI50 (OVCAR-8) of 6.61 µM, a GI50 (SW-620) of 7.24 µM and a TGI (SW-620) of 24.2 µM. It also gave a GI50 (CCRF-CEM) of 2.57 µM, a GI50 (SK-MEL-5) of 6.03 µM and a GI50 (Malme-3M) of 11.5 µM. The GI50 (SF-268) was 6.61 µM, the GI50 (HT-29) was 2.34 µM and the TGI (HT-29) was 5.9 µM. For the same molecule, the GI50 (NCI-H23) was 9.55 µM, the GI50 (T47D) was 7.24 µM and the GI50 (SK-MEL-28) was 8.32 µM. It also gave a GI50 (NCI-H226) of 6.03 µM, a GI50 (UACC-257) of 10.2 µM and a GI50 (MDA-MB-435) of 4.79 µM. For the same molecule, the GI50 [8] was 4.9 µM, the GI50 (OVCAR-3) was 2.82 µM and the TGI (NSCLC) was 23.4 µM. The GI50 (HOP-62) was 12.9 µM, the GI50 (NCI-H522) was 7.41 µM and the GI50 (KM12) was 1.55 µM. For the same molecule, the TGI (KM12) was 4.8 µM, the GI50 (BT-549) was 11.5 µM and the GI50 (MOLT-4) was 1.95 µM. For the same molecule, the GI50 (MCF7) was 1.51 µM, the GI50 (DU-145) was 10.7 µM and the GI50 (HCC 2998) was 1.58 µM. The TGI (HCC 2998) was 3.5 µM, the GI50 (U-251) was 2.82 µM and the GI50 (HOP-92) was 10.7 µM. For the same molecule, the TGI [9] was 16.9 µM, the TGI [10] was 19.1 µM and the GI50 (PC-3) was 3.47 µM. For the same molecule, the GI50 (SNB-19) was 5.5 µM and the GI50 [11] was 5.25 µM.
